Measurements: patent publication US11453642B2, “Oxygenated amino- or ammonium-containing sulfonic acid, phosphonic acid and carboxylic acid derivatives and their medical use” (GRI BIO, INC., priority 2011, dated 2022)

What was measured:
RBL-2H3 cells = experiment: Inhibition of mast cell degranulation (β-hexosaminidase release); assay type: cell-based; details: Rattus norvegicus, IgE-sensitized RBL-2H3 cells, 1 h with compound, antigen (DNP-HSA) 15 min
Excerpt: Mast cells are key effector cells involved in allergic and inflammatory diseases, and the Rat Basophilic Leukemia clone 2H3 (RBL-2H3) cell line is a commonly used model of allergen dependent immune modulator release (degranulation) in mast cells. On their surface, they express the high affinity receptor for IgE (FcεRI). Upon binding of antigen-specific IgE to the receptor, cells become sensitized to the IgE specific antigen (allergen). When IgE-sensitized cells then encounter multivalent antigen, the antigen clusters IgE-FcεRI complexes and initiates a signal transduction cascade that leads to degranulation, that is, the release of inflammatory mediators, such as cytokines, eicosanoids, histamine and enzymes. The assay can be used as a screening method to identify immune-modulating compounds, in particular compounds useful in the medical management of allergic and inflammatory diseases and asthma, β-hexosaminidase was previously shown to be released with the same kinetics as histamine (Schwartz et al., J Immunology; 123:1445-1450 (1979)), thus offering a simple means to monitor degranulation. […]
MUG substrate solution, 100 μl, were added to supernatant and lysate samples and plates were incubated 30 min at 37° C. […] Fluorescence was measured at 365 nm excitation and 440 nm emission wavelengths. […]

[1] = Pharmacokinetic study after a single oral administration to mice; assay type: in vivo
Method: The aim of the study was to evaluate pharmacokinetic (PK) properties of five different batches including anhydrates and monohydrates of the crystal form A of compound 1a (cf. Table 1 in Example 5) after a single oral administration to mice. Three of the forms were anhydrous and two were monohydrates.
Compound 1a was administered as a suspension of 0.5% methyl cellulose (Sigma-Aldrich) in water at a dose of 100 mg/kg (10 ml/kg) by oral gavage to non-fasted female Balb/c mice (n=3).
Blood was collected by decapitation at 0.5, 1, 2, 4, 8, 12, 24, and 48 h after administration. Blood plasma was isolated by centrifugation at 4° C. (20,000×g for 10 min), transferred to microtubes containing lithium-heparin and frozen in aliquots at −70° C. until assayed by mass-spectrometry. Mean plasma concentration-time profiles (semi-logarithmic) of the five polymorphic crystal forms of compound 1a are shown in FIG. 6.
For PK evaluation, summary statistics and plotting of concentration/time curves, all values below the lower limit of quantification (LLOQ) were set to zero.

[2] = system: collagen type II-induced arthritis (CIA)

Row | SMILES | IC50 (RBL-2H3 cells) [µM] | tmax ([1]; female, Balb/c, mouse, plasma, po, 100 mg/kg, female Balb/c mice, single oral 100 mg/kg in 0.5% methylcellulose, plasma, read-out: tmax) [h] | overt toxicity ([1]; single oral 100 mg/kg, regardless of the polymorphic crystal form) | spleen and thymus weights ([2]; mouse, in vivo) | toxic effects ([2]; mouse, in vivo) | cumulative arthritis score and paw thickness ([2]; prophylactic regimen day 0-47, 25 and 100 mg/kg orally twice daily, vs vehicle) | arthritis score and cumulative arthritis score ([2]; therapeutic regimen, 100 mg/kg orally twice daily for 20 days, day 11 to 13 and day 21, vs vehicle)
1 | CCCCCCCCCCCCN(C)CC(O)CS(=O)(=O)O (stereo not shown) [Compound 1c, 2-hydroxy-3-(N-methyldodecylammonio)propanesulfonate] | 4.1 | – | – | – | – | – | –
2 | CCCCCCCCCCCCCCCCN(C)CC(O)CS(=O)(=O)O (stereo not shown) [Compound 1a, 2-hydroxy-3-(N-methylhexadecylammonio)propane-sulfonate] | – | 1 to 2 | No overt toxicity | did not reduce | did not show any toxic effects | reduced | significantly reduced
